In ChEMBL document CHEMBL3817753, “Neurosteroid-like Inhibitors of N-Methyl-d-aspartate Receptor: Substituted 2-Sulfates and 2-Hemisuccinates of Perhydrophenanthrene” (J Med Chem, 2016):

Key:
[1] = target: Glutamate NMDA receptor; Grin1/Grin2b (Rattus norvegicus, UniProt P35439+Q00960); test: Inhibition of recombinant rat GluN1a/GluN2B co-expressed in HEK293 cells assessed as suppression of glutamate-induced current by patch-clamp method; assay type: cell-based
[2] = Inhibition of AMPAR in rat hippocampal neurons assessed as suppression of AMPA-induced current by whole-cell patch-clamp method; assay type: tissue-based; details: Hippocampus
[3] = target: Glutamate NMDA receptor; Grin1/Grin2a (Rattus norvegicus, UniProt P35439+Q00959); test: Inhibition of recombinant rat GluN1a/GluN2A co-expressed in HEK293 cells assessed as suppression of glutamate-induced current by patch-clamp method; assay type: cell-based
Chain of Glutamate NMDA receptor; Grin1/Grin2a (Q00959 whole entry, other chains not shown): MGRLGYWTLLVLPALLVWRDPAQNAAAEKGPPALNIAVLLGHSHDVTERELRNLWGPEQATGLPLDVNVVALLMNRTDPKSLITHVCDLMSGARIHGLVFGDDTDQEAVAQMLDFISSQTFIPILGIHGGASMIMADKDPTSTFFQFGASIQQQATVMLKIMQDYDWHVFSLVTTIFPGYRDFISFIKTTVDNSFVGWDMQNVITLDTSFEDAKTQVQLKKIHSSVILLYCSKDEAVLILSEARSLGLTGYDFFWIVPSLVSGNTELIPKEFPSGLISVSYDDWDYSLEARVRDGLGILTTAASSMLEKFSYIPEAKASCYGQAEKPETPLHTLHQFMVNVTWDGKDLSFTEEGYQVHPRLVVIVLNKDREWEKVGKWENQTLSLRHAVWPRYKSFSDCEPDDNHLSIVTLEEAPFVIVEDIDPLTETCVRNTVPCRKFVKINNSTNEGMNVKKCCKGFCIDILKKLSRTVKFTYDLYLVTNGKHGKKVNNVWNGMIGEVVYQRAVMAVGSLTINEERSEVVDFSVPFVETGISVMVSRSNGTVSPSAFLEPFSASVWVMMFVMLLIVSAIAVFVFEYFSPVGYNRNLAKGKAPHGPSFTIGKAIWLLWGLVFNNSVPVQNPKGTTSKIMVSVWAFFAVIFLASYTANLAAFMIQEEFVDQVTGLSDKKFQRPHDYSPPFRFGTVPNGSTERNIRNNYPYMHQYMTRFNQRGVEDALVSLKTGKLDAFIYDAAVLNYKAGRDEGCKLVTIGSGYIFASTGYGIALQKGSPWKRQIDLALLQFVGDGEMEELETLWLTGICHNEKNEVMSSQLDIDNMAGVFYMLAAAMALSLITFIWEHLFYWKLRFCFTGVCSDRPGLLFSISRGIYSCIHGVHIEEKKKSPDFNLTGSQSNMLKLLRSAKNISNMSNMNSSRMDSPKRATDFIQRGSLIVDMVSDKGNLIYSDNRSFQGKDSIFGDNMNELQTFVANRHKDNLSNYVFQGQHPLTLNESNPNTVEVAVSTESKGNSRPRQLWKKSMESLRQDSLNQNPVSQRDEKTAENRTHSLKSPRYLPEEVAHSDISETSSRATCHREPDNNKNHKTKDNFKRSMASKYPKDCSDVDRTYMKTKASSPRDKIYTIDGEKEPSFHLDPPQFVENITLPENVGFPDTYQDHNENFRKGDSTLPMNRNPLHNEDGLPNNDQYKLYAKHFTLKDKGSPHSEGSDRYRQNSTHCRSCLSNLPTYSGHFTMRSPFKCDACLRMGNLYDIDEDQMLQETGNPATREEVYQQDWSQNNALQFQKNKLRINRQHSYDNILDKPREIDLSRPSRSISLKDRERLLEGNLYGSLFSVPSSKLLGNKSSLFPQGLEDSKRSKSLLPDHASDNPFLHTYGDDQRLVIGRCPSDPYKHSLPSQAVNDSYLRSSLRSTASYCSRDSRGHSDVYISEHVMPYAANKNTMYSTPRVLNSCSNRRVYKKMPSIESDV

[4] = Inhibition of GABAR in rat hippocampal neurons assessed as suppression of GABA-induced current by whole-cell patch-clamp method; assay type: tissue-based; details: Hippocampus
[5] = target: Glutamate NMDA receptor; Grin1/Grin2c (Rattus norvegicus, UniProt P35439+Q00961); test: Inhibition of recombinant rat GluN1a/GluN2C co-expressed in HEK293 cells assessed as suppression of glutamate-induced current by patch-clamp method; assay type: cell-based
[6] = target: Ionotropic glutamate receptor NMDA 1/2D (Rattus norvegicus, UniProt P35439+Q62645); test: Inhibition of recombinant rat GluN1a/GluN2D co-expressed in HEK293 cells assessed as suppression of glutamate-induced current by patch-clamp method; assay type: cell-based
Chain of Ionotropic glutamate receptor NMDA 1/2D (Q62645 whole entry, other chains not shown): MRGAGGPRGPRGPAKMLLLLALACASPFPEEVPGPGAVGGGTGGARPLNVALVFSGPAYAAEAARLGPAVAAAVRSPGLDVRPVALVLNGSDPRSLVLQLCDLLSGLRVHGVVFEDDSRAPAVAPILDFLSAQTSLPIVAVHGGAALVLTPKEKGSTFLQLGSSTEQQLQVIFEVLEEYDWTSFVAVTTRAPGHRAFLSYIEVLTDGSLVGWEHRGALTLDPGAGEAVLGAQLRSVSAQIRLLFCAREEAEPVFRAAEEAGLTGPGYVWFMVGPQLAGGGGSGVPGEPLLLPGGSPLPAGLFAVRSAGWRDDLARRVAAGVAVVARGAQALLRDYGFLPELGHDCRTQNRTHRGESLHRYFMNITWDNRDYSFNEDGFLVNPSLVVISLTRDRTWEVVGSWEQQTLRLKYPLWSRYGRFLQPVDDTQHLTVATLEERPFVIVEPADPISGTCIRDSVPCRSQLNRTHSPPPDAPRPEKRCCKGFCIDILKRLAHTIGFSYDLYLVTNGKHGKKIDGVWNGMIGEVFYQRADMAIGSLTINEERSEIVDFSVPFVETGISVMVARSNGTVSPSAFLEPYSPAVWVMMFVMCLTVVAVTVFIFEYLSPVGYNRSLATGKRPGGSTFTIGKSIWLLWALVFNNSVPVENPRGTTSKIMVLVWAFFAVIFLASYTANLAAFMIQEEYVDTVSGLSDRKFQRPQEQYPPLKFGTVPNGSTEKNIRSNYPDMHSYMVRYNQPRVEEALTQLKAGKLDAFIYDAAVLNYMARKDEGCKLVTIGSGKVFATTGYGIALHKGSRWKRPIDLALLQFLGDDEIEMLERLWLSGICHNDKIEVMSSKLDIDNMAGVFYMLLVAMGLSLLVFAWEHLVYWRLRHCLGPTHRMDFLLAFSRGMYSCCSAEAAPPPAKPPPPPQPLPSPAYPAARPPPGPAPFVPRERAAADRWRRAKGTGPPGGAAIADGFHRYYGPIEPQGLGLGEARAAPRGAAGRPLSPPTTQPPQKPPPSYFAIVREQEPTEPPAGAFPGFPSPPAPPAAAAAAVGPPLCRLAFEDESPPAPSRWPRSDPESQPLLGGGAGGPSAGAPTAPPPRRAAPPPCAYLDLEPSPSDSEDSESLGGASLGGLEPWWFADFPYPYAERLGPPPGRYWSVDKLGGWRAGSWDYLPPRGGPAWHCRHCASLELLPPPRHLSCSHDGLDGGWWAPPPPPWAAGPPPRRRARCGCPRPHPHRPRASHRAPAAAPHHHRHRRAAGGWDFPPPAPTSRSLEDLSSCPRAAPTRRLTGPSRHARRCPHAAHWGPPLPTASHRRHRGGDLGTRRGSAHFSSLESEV

[7] = Inhibition of NMDAR in rat hippocampal neurons assessed as suppression of NMDA-induced current by whole-cell patch-clamp method; assay type: tissue-based; details: Hippocampus

Chain of Glutamate NMDA receptor; Grin1/Grin2b (Q00960 whole entry, other chains not shown): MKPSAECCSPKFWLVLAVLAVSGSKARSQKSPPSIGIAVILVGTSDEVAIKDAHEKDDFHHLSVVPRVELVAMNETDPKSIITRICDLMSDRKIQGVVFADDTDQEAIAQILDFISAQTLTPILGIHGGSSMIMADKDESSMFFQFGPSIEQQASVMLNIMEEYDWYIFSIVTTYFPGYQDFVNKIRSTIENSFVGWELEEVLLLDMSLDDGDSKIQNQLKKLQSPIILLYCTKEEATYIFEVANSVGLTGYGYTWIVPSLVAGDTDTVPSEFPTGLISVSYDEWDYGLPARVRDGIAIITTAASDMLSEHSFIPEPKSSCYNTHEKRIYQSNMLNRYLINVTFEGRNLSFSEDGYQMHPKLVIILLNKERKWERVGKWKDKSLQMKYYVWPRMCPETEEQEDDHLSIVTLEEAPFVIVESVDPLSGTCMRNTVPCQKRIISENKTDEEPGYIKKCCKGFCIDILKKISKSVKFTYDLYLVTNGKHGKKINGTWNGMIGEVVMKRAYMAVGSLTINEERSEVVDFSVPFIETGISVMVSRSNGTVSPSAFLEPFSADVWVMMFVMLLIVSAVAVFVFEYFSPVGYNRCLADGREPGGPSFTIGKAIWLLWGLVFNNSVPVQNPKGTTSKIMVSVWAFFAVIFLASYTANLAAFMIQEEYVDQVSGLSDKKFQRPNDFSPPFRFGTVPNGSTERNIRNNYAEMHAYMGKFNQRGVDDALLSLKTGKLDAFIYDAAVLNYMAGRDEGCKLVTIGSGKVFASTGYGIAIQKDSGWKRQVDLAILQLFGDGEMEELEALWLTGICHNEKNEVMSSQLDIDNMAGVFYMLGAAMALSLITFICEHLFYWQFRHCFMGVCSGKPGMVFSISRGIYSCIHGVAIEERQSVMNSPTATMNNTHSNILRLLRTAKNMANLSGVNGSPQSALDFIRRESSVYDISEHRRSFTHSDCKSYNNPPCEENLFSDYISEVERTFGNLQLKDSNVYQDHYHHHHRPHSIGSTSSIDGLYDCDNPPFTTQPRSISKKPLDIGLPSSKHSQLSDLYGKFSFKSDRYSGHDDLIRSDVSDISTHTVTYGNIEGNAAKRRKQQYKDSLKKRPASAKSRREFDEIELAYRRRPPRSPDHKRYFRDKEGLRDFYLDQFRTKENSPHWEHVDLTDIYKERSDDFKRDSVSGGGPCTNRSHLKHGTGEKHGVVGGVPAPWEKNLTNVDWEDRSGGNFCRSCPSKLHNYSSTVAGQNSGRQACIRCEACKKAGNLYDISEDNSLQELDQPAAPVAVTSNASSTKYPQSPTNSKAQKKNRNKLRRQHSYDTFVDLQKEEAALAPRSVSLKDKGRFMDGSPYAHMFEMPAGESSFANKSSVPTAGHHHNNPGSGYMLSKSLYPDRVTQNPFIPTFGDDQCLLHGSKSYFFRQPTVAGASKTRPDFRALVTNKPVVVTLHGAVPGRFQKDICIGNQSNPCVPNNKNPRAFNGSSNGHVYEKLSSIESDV

Compound | IC50 [1] [µM] | further results
COC(=O)[C@@]1(C)CC[C@H]2[C@@H](CC[C@@H]3C[C@H](OC(=O)CCC(=O)O)CC[C@@]32C)[C@@H]1C | 63.4 | –
COC[C@@]1(C)CC[C@H]2[C@@H](CC[C@@H]3C[C@H](OC(=O)CCC(=O)O)CC[C@@]32C)C1 | 33.3 | –
C[C@@H]1CC[C@H]2[C@@H](CC[C@@H]3C[C@H](OS(=O)(=O)O)CC[C@@]32C)C1.c1ccncc1 | 15.6 | IC50 [2]: 83 µM; IC50 [3]: 10.9 µM; IC50 [4]: 3.1 µM; IC50 [5]: 11.1 µM; IC50 [6]: 8.1 µM; IC50 [7]: 13.7 µM
COC(=O)[C@@]1(C)CC[C@H]2[C@@H](CC[C@@H]3C[C@H](OS(=O)(=O)O)CC[C@@]32C)[C@@H]1C.c1ccncc1 | 74.6 | –
COC[C@@]1(C)CC[C@H]2[C@@H](CC[C@@H]3C[C@H](OC(=O)CCC(=O)O)CC[C@@]32C)[C@@H]1C | 29.2 | –
COC(=O)[C@@]1(C)CC[C@H]2[C@@H](CC[C@@H]3C[C@H](OC(=O)CCC(=O)O)CC[C@@]32C)C1 | 87.6 | –
COC[C@@]1(C)CC[C@H]2[C@@H](CC[C@@H]3C[C@H](OS(=O)(=O)O)CC[C@@]32C)C1.c1ccncc1 | 77 | –
